Square brackets hold non-standard residues; d marks the D form. Ends that are not written are not given here. Cit = NC(=O)NCCC[C@H](N)C(=O)O
What was measured:
splenocytes [1] = assay: Screening of citrullinated Enolase peptide pools, ex vivo IFNγ Elispot, DR4 mice; format: in vivo, transgenic DR4 mouse; details: single immunisation with pool of 4-6 human citrullinated peptides, 20 μg each, CpG/MPLA, day 14, label = peptide used for restimulation
Description: C57BL/6 mice (Charles River, UK), HLA-DR4 mice (Taconic, USA), HHDII/DR1 mice (Pasteur institute, France) and the HHD/HLA-DP4 transgenic strain of mouse as described in patent WO2013/017545 A1 (EMMA repository, France) were used, aged between 8 and 12 weeks, and cared for by the staff at Nottingham Trent University. All work was carried out under a Home Office project licence. Peptides were dissolved in PBS to 1 mg/ml and then emulsified (a series of dilutions) with different adjuvants: CpG and MPLA 6 μg/mouse of each (Invivogen, UK), Incomplete Freund's 50 μl/mouse (Sigma, UK), poly I:C 10 μg/mouse (Invivogen, UK), Imiquimod 25 μg/mouse (Invivogen, UK) and GMCSF 10 μg/mouse (Peprotech, UK). […]
Elispot assays were performed using murine IFNγ, IL-17 and IL-10 capture and detection reagents according to the manufacturer's instructions (Mabtech, Sweden). […] After incubation, captured IFN and IL-10 were detected by biotinylated anti-IFNγ and IL-10 antibodies and developed with a streptavidin alkaline phosphatase and chromogenic substrate. Spots were analysed and counted using an automated plate reader (Cellular Technologies Ltd).
Screening was performed to identify potential citrullinated Enolase epitopes in mice. […] After 14 days the mice were culled and the immune responses to each peptide within the immunising pool were assessed by ex vivo Elispot (FIG. 2). […]

splenocytes [2] = assay: Peptide immunisation and ex vivo Elispot, DR4 mice; format: in vivo, HLA-DR4 transgenic mouse
Description: (§1) C57BL/6 mice (Charles River, UK), HLA-DR4 mice (Taconic, USA), HHDII/DR1 mice (Pasteur institute, France) and the HHD/HLA-DP4 transgenic strain of mouse as described in patent WO2013/017545 A1 (EMMA repository, France) were used, aged between 8 and 12 weeks, and cared for by the staff at Nottingham Trent University. All work was carried out under a Home Office project licence. Peptides were dissolved in PBS to 1 mg/ml and then emulsified (a series of dilutions) with different adjuvants: CpG and MPLA 6 μg/mouse of each (Invivogen, UK), Incomplete Freund's 50 μl/mouse (Sigma, UK), poly I:C 10 μg/mouse (Invivogen, UK), Imiquimod 25 μg/mouse (Invivogen, UK) and GMCSF 10 μg/mouse (Peprotech, UK). Peptides (25 μg/mouse) were injected subcutaneously at the base of the tail. DNA (1 μg/mouse) was coated onto 1.0 μm gold particles (BioRad, Hemel Hempstead, UK) using the manufacturer's instructions and administered intradermally by genegun (BioRad). Homspera (10 nM/mouse) (PeptideSynthetics, UK) was injected intradermally with genegun immunisation. Mice were immunized at either day 0 for peptide immunisation or days, 0 and 7 for genegun immunisation, unless otherwise stated. Spleens were removed for analysis at day 14 for peptide and day 20 for peptide or genegun immunisation unless stated otherwise.
Elispot assays were performed using murine IFNγ, IL-17 and IL-10 capture and detection reagents according to the manufacturer's instructions (Mabtech, Sweden). In brief, anti-IFNγ, IL-17 and IL-10 antibodies were coated onto wells of 96-well Immobilin-P plate. Synthetic peptides (at a variety of concentrations) and 5×10^5 per well splenocytes were added to the wells of the plate in triplicate. Tumour target cells were added where relevant at 5×10^4/well in triplicate and plates incubated for 40 hrs at 37° C. After incubation, captured IFN and IL-10 were detected by biotinylated anti-IFNγ and IL-10 antibodies and developed with a streptavidin alkaline phosphatase and chromogenic substrate. Spots were analysed and counted using an automated plate reader (Cellular Technologies Ltd).

B16DR4 tumour = assay: B16DR4 melanoma tumour challenge; format: in vivo, DR4 mice
Description: as §1
For tumour challenge experiments mice were challenged with 2.5×10^4 B16 DR4 cells or 1×10^6 LLC2/LLC2 DR4 cells, 2.5×10^5 Pan02 DR4 cells in matrigel or 4×10^5 B16 HHDII DP4 cells subcutaneously on the right flank 3 days prior to primary immunisation and then were immunised as above. Tumour growth was monitored at 3-4 days intervals and mice were humanely euthanized once tumour reached ≥10 mm in diameter.

B16iDR4 = assay: B16 tumour with IFNγ inducible DR4 (B16iDR4) challenge; format: in vivo, DR4 mice
Description: as §1
For tumour challenge experiments mice were challenged with 2.5×10^4 B16 DR4 cells or 1×10^6 LLC2/LLC2 DR4 cells, 2.5×10^5 Pan02 DR4 cells in matrigel or […] above. Tumour growth was monitored at 3-4 days intervals and mice were humanely euthanized once tumour reached ≥10 mm in diameter.

LLCDR4 tumour = assay: Lewis lung carcinoma LLC2 with constitutive DR4 (LLCDR4) challenge; format: in vivo, DR4 mice; details: challenge four days before peptide immunisation; all controls died by day 48
Description: as §1, with “Mice were immunized at either day 0 for peptide immunisation or days, 0 and 7 for genegun immunisation, unless otherwise stated. Spleens were removed for analysis at day 14 for peptide and day 20 for peptide or genegun immunisation unless stated otherwise.” left out
(§2) For tumour challenge experiments mice were challenged with 2.5×10^4 B16 DR4 cells or 1×10^6 LLC2/LLC2 DR4 cells, […] above. Tumour growth was monitored at 3-4 days intervals and mice were humanely euthanized once tumour reached ≥10 mm in diameter.

parental LLC2 tumour = assay: Parental Lewis lung carcinoma LLC2 challenge; format: in vivo, DR4 mice; details: challenge four days before peptide immunisation
Description: as §1, with “Mice were immunized at either day 0 for peptide immunisation or days, 0 and 7 for genegun immunisation, unless otherwise stated. Spleens were removed for analysis at day 14 for peptide and day 20 for peptide or genegun immunisation unless stated otherwise.” left out
as §2

Pan02 DR4 = Pan02 DR4 pancreatic tumour challenge; format: in vivo, DR4 transgenic mice; details: peptide immunisation 4 days after tumour challenge; none of unimmunized survived
PBMCs = assay: Intracellular cytokine staining of PBMCs; format: cell-based, human; details: donor 4, cultured 13 days in Enolase 241cit, restimulated; label = restimulating peptide
Description: PBMC cultures were set up as detailed above. On day 14 PBMCs were washed and cultured with synthetic peptide (10 μg/ml) in the presence of brefeldin A for 20 hrs at 37° C. Cells were stained with cell surface markers CD4 and CD8 using PE-Cy5 and efluor450 labelled antibodies respectively. Cells were subsequently fixed and permeabilised and stained with IFNγ PE-Cy7 labelled antibody. After staining cells were fixed and analysed on Miltenyi MACSQuant flow cytometer.

[3] = DR4 mice immunised with human 241cit
[4] = DR4 mice, single immunisation 25 μg human 241cit + CpG/MPLA

Substance: VIGMDVAASEFF-CIT-SGKYDLD (VIGMDVAASEFF[Cit]SGKYDLD; listed as Homo sapiens) [Enolase 241cit]
- IFNγ response to peptide compared to media (splenocytes [1]): significant response
- IFN response with GM-CSF (splenocytes [2]; 1 or 3 doses with 25 μg of peptide): Detectable responses
- IFNγ response in CD4 depleted fraction (splenocytes [2]; [3]): not
- IFNγ response in CD4 enriched fraction (splenocytes [2]; [3]): present
- IFNγ response in presence of CD4 blocking antibody (GK1.5) (splenocytes [2]; [3]): significantly reduced
- IL-10 production in response to peptide stimulation (splenocytes [2]; DR4 mice immunised with human 241cit, ex vivo IL-10 ELISpot): No significant increase in IL-10 production
- IFNγ response in presence of human MHC class II blocking antibody (L243) (splenocytes [2]; DR4 mice immunised with human 241cit, label = restimulating peptide): significantly reduced
- IFNγ response with adjuvant CpG/MPLA (splenocytes [2]; DR4 mice, single dose): detected
- IFNγ response with adjuvant IFA (splenocytes [2]; DR4 mice, single dose): no IFNγ response
- IL-10 response with adjuvant CpG/MPLA (splenocytes [2]; DR4 mice, single dose): not
- IL-10 response with adjuvant IFA (splenocytes [2]; DR4 mice, single dose): detected
- IFNγ responses after 6 and 14 days compared to after 2 days (splenocytes [2]; DR4 mice, single dose in CpG/MPLA): significantly increased
- time after immunisation at which IFNγ response is detectable (splenocytes [2]; DR4 mice, single dose in CpG/MPLA, sacrificed after 2, 6 or 14 days): 6 days
- IFNγ response to human citrullinated sequence compared to media (splenocytes [2]; [4]): significant IFNγ response
- IFNγ response to mouse citrullinated sequence compared to media (splenocytes [2]; [4]): significant IFNγ response
- immune response to human or mouse wild type (wt) sequence (splenocytes [2]; [4]): neither
- IFNγ response in combination with poly I:C (splenocytes [2]; DR4 transgenic mice): induces IFNγ responses
- IL-10 response in combination with poly I:C (splenocytes [2]; DR4 transgenic mice): no IL-10
- response in the absence of adjuvant (splenocytes [2]; peptide immunisation without adjuvant): no response
- animals surviving at day 45 (B16DR4 tumour; B16DR4 challenge, three doses of 5 μg in GM-CSF over three weeks, control 0% by day 28): 70%
- tumour volume, median, day 17 post tumour implant (B16DR4 tumour; peptide immunisation after B16DR4 implant, control median 49 mm^3): 0 mm^3
- survival after 45 days (B16DR4 tumour; peptide immunisation after B16DR4 implant, unimmunised 15%): 50%
- survival at day 42 (B16iDR4; challenge 4 days prior to peptide immunisation, control 0%): 90%
- tumour volume, median, day 17 post tumour implant (B16iDR4; challenge 4 days prior to peptide immunisation, control median 65 mm^3): 0 mm^3
- survival 39 days after rechallenge (B16iDR4; immunised survivors rechallenged with B16iDR4 at day 42, all controls dead by day 29): 67%
- mice surviving to day 58 (LLCDR4 tumour): 40%
- survival time versus unimmunised control (parental LLC2 tumour): small but significant increase in survival time
- survival at day 60 (Pan02 DR4): 50%
- IFNγ positive CD4 cells (PBMCs): 0.44%
